Data published in patent US12655116B2, “Substituted isophthalic acid diamides” (Bayer Aktiengesellschaft, priority 2020, dated 2026).

Tests used:
AVEFA = test: Pre-emergence herbicidal action against AVEFA; format: in vivo, Avena fatua; settings: for pest or weed control at 80 g/ha / pest or weed control at 20 g/ha: Avena fatua, 504 h
How it was run: (§1)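 Seeds sown in sandy loam, soil-covered; compound sprayed on soil surface pre-emergence. Application: WP/EC, 600–800 l/ha, 0.2% wetting agent. Readout: visual % damage at 3 weeks.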

PHBPU [1] = test: Pre-emergence herbicidal action against PHBPU; format: in vivo, Pharbitis purpurea; settings: dosage 80 g/ha
How it was run: as §1

ALOMY [2] = test: Pre-emergence herbicidal action against ALOMY; format: in vivo, Alopecurus myosuroides; settings: pre-emergence
How it was run: as §1

ABUTH [3] = test: Pre-emergence herbicidal action against ABUTH; format: in vivo, Abutilon theophrasti
How it was run: as §1

ECHCG [4] = test: Post-emergence herbicidal action against ECHCG; format: in vivo, Echinochloa crus-galli
How it was run: (§2)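 Sandy loam, greenhouse; treatment 2–3 weeks after sowing, one-leaf stage. Aqueous suspension or emulsion from WP/EC sprayed on foliage (600–800 l/ha, 0.2% wetting agent). Readout: visual % action, ~3 weeks.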

LOLRI = test: Pre-emergence herbicidal action against LOLRI; format: in vivo, Lolium rigidum; settings: for pest or weed control at 80 g/ha: Lolium rigidum, 504 h
Description: Seeds of monocotyledonous and dicotyledonous weed plants and crop plants are laid out in sandy loam soil in wood-fiber pots and covered with soil. The compounds of the invention, formulated in the form of wettable powders (WP) or as emulsion concentrates (EC), are then applied to the surface of the covering soil in the form of an aqueous suspension or emulsion at a water application rate equivalent to 600 to 800 l/ha, with addition of 0.2% wetting agent. After the treatment, the pots are placed in a greenhouse and kept under good growth conditions for the trial plants. The damage to the test plants is scored visually after a test period of 3 weeks by comparison with untreated controls (herbicidal activity in percent (%): 100% activity=the plants have died, 0% activity=like control plants). […] The tables below illustrate, in an illustrative manner, the post-emergence herbicidal action of the compounds of the invention, the herbicidal activity being stated in percent.

AMARE [5] = test: Post-emergence herbicidal action against AMARE; format: in vivo, Amaranthus retroflexus; settings: 20 g/ha, visual assessment about 3 weeks after treatment, 100% = plants have died, 0% = like control plants; for pest or weed control at 20 g/ha: Amaranthus retroflexus, 504 h
How it was run: as §2

DIGSA [6] = test: Pre-emergence herbicidal action against DIGSA; format: in vivo, Digitaria sanguinalis; settings: dosage 80 g/ha
How it was run: as §1

ECHCG [7] = test: Pre-emergence herbicidal action against ECHCG; format: in vivo, Echinochloa crus-galli; settings: for pest or weed control at 80 g/ha: Echinochloa crus-galli, 504 h
How it was run: as §1

MATIN [8] = test: Pre-emergence herbicidal action against MATIN; format: in vivo, Matricaria inodora
How it was run: as §1

MATIN [9] = test: Post-emergence herbicidal action against MATIN; format: in vivo, Matricaria inodora
How it was run: as §2

ABUTH [10] = test: Post-emergence herbicidal action against ABUTH; format: in vivo, Abutilon theophrasti; settings: visual assessment about 3 weeks after treatment vs untreated controls
How it was run: as §2

DIGSA [11] = test: Post-emergence herbicidal action against DIGSA; format: in vivo, Digitaria sanguinalis; settings: 20 g/ha
How it was run: as §2

AMARE [12] = test: Pre-emergence herbicidal action against AMARE; format: in vivo, Amaranthus retroflexus; settings: for pest or weed control at 20 g/ha / pest or weed control at 80 g/ha: Amaranthus retroflexus, 504 h, scored visually after 3 weeks vs untreated controls, 100% = plants have died, 0% = like control plants
How it was run: as §1

PHBPU [13] = test: Post-emergence herbicidal action against PHBPU; format: in vivo, Pharbitis purpurea
How it was run: as §2

VERPE [14] = test: Pre-emergence herbicidal action against VERPE; format: in vivo, Veronica persica; settings: dosage 80 g/ha
How it was run: as §1

ALOMY [15] = test: Post-emergence herbicidal action against ALOMY; format: in vivo, Alopecurus myosuroides; settings: Alopecurus myosuroides, 504 h, visual assessment about 3 weeks after treatment vs untreated controls; for pest or weed control at 5 g/ha: dosage 5 g/ha; for pest or weed control at 20 g/ha: dosage 20 g/ha
How it was run: as §2

VIOTR [16] = test: Pre-emergence herbicidal action against VIOTR; format: in vivo, Viola tricolor; settings: Viola tricolor, 504 h; for pest or weed control at 80 g/ha: dosage 80 g/ha
How it was run: as §1

VERPE [17] = test: Post-emergence herbicidal action against VERPE; format: in vivo, Veronica persica; settings: Veronica persica, 504 h, 20 g/ha
How it was run: as §2

SETVI [18] = test: Pre-emergence herbicidal action against SETVI; format: in vivo, Setaria viridis; settings: Setaria viridis, 504 h; for pest or weed control at 80 g/ha: dosage 80 g/ha
How it was run: as §1

VIOTR [19] = test: Post-emergence herbicidal action against VIOTR; format: in vivo, Viola tricolor; settings: Viola tricolor, 504 h
How it was run: as §2

SETVI [20] = test: Post-emergence herbicidal action against SETVI; format: in vivo, Setaria viridis; settings: Setaria viridis, 504 h; for pest or weed control at 20 g/ha: dosage 20 g/ha
How it was run: as §2

[21] = 80 g/ha, scored visually after 3 weeks vs untreated controls (100% = plants have died, 0% = like control plants)
[22] = pre-emergence, 20 g/ha, scored visually after 3 weeks, 100% = plants have died, 0% = like control plants
[23] = Alopecurus myosuroides, 504 h, 80 g/ha, scored visually after 3 weeks vs untreated controls (100% = plants have died, 0% = like control plants)
[24] = Abutilon theophrasti, 504 h, 80 g/ha, scored visually after 3 weeks vs untreated controls (100% = plants have died, 0% = like control plants)
[25] = Echinochloa crus-galli, 504 h, dosage 20 g/ha
[26] = Tripleurospermum inodorum, 504 h, dosage 20 g/ha
[27] = Tripleurospermum inodorum, 504 h, dosage 80 g/ha
[28] = Abutilon theophrasti, 504 h, dosage 20 g/ha
[29] = Ipomoea purpurea, 504 h, dosage 20 g/ha

Cn1nnnc1NC(=O)c1ccc(C(F)F)c(C(=O)NC2CCC2)c1Cl [Example 1-164]
100%: Pre-emergence action against AVEFA (AVEFA; 20 g/ha, scored visually after 3 weeks, 100% = plants have died, 0% = like control plants) | Pre-emergence action against AVEFA in % (AVEFA; 80 g/ha, pre-emergence) | Pre-emergence action against PHBPU in % (PHBPU [1]) | Pre-emergence action against ALOMY (herbicidal activity) (ALOMY [2]; [21]) | Pre-emergence action against LOLRI in % (LOLRI; 20 g/ha) | Pre-emergence action against LOLRI in % (LOLRI; 80 g/ha) | Pre-emergence action against ECHCG in % (ECHCG [7]; 20 g/ha) | Pre-emergence action against ECHCG in % (ECHCG [7]; 80 g/ha) | Pre-emergence action against MATIN in % (MATIN [8]; dosage 80 g/ha) | Pre-emergence action against AMARE in % (AMARE [12]; [21])
90%: Post-emergence action against ECHCG in % (ECHCG [4]; dosage 20 g/ha) | Post-emergence action at 20 g/ha against AMARE in % (AMARE [5]) | Post-emergence action against PHBPU in % (PHBPU [13]; dosage 5 g/ha) | Post-emergence action against PHBPU in % (PHBPU [13]; dosage 20 g/ha) | Pre-emergence action against VERPE in % (VERPE [14])
80%: Pre-emergence action against ABUTH (herbicidal activity) (ABUTH [3]; [21]) | Pre-emergence action against ABUTH (herbicidal activity in percent) (ABUTH [3]; dosage 20 g/ha, scored visually after 3 weeks vs untreated controls, 100% = plants have died, 0% = like control plants) | Post-emergence action against ECHCG in % (ECHCG [4]; dosage 5 g/ha) | Pre-emergence action against DIGSA in % (DIGSA [6]) | Post-emergence action against MATIN in % (MATIN [9]; dosage 5 g/ha) | Post-emergence action against MATIN in % (MATIN [9]; dosage 20 g/ha) | Post-emergence action against ABUTH in % (ABUTH [10]; dosage 5 g/ha) | Post-emergence action against ABUTH in % (ABUTH [10]; dosage 20 g/ha) | Post-emergence action against DIGSA (DIGSA [11])

CNC(=O)c1c(I)ccc(C(=O)Nc2nnnn2C)c1Cl [Example 1-195]
80%: pest or weed control at 20 g/ha (AVEFA; [22]) | pest or weed control at 20 g/ha (VERPE [17]) | pest or weed control at 20 g/ha (ECHCG [4]; [25]) | pest or weed control at 80 g/ha (LOLRI; 80 g/ha) | pest or weed control at 20 g/ha (MATIN [9]; [26]) | pest or weed control at 20 g/ha (ABUTH [10]; [28]) | pest or weed control at 5 g/ha (PHBPU [13]; Ipomoea purpurea, 504 h, dosage 5 g/ha) | pest or weed control at 20 g/ha (PHBPU [13]; [29])
100%: pest or weed control at 20 g/ha (ALOMY [15]) | pest or weed control at 80 g/ha (ABUTH [3]; [24]) | pest or weed control at 20 g/ha (VIOTR [16]; dosage 20 g/ha) | pest or weed control at 80 g/ha (VIOTR [16]) | pest or weed control at 80 g/ha (SETVI [18]) | pest or weed control at 20 g/ha (AMARE [5]) | pest or weed control at 20 g/ha (VIOTR [19]) | pest or weed control at 80 g/ha (ECHCG [7]; 80 g/ha) | pest or weed control at 5 g/ha (SETVI [20]; dosage 5 g/ha) | pest or weed control at 20 g/ha (SETVI [20]) | pest or weed control at 80 g/ha (MATIN [8]; [27]) | pest or weed control at 80 g/ha (AMARE [12]; 80 g/ha)
90%: pest or weed control at 80 g/ha (AVEFA; 80 g/ha, pre-emergence) | pest or weed control at 5 g/ha (ALOMY [15]) | pest or weed control at 80 g/ha (ALOMY [2]; [23]) | pest or weed control at 20 g/ha (ALOMY [2]; Alopecurus myosuroides, 504 h, 20 g/ha, scored visually after 3 weeks, 100% = plants have died, 0% = like control plants) | pest or weed control at 20 g/ha (ABUTH [3]; Abutilon theophrasti, 504 h, dosage 20 g/ha, scored visually after 3 weeks vs untreated controls, 100% = plants have died, 0% = like control plants, read-out: Pre-emergence action against ABUTH (herbicidal activity in percent)) | pest or weed control at 20 g/ha (SETVI [18]; dosage 20 g/ha) | pest or weed control at 5 g/ha (VIOTR [19]; 5 g/ha) | pest or weed control at 20 g/ha (MATIN [8]; [26]) | pest or weed control at 20 g/ha (AMARE [12])

CCNC(=O)c1c(Br)ccc(C(=O)Nc2nnnn2C)c1Br [Example 1-343]
90%: pest or weed control at 5 g/ha (ALOMY [15]) | pest or weed control at 20 g/ha (ECHCG [4]; [25]) | pest or weed control at 80 g/ha (ECHCG [7]; 80 g/ha) | pest or weed control at 5 g/ha (ABUTH [10]; Abutilon theophrasti, 504 h, dosage 5 g/ha) | pest or weed control at 20 g/ha (ABUTH [10]; [28])
100%: pest or weed control at 20 g/ha (ALOMY [15]) | pest or weed control at 80 g/ha (ALOMY [2]; [23]) | pest or weed control at 80 g/ha (ABUTH [3]; [24]) | pest or weed control at 80 g/ha (VIOTR [16]) | pest or weed control at 80 g/ha (SETVI [18]) | pest or weed control at 20 g/ha (AMARE [5]) | pest or weed control at 20 g/ha (SETVI [20]) | pest or weed control at 80 g/ha (MATIN [8]; [27]) | pest or weed control at 20 g/ha (AMARE [12]) | pest or weed control at 80 g/ha (AMARE [12]; 80 g/ha)
80%: pest or weed control at 80 g/ha (AVEFA; 80 g/ha, pre-emergence) | pest or weed control at 20 g/ha (AVEFA; [22]) | pest or weed control at 20 g/ha (VERPE [17]) | pest or weed control at 5 g/ha (ECHCG [4]; Echinochloa crus-galli, 504 h, dosage 5 g/ha) | pest or weed control at 80 g/ha (LOLRI; 80 g/ha) | pest or weed control at 20 g/ha (VIOTR [19]) | pest or weed control at 20 g/ha (PHBPU [13]; [29]) | pest or weed control at 80 g/ha (VERPE [14]; Veronica persica, 504 h)
